# In PubChem BioAssay AID248 (DTP/NCI, 2004):
# Where “and” joins values, the source holds several entries; their conditions need not be identical. Equal entries are not always repeated. Toxic doses and inconclusive results are not listed.
# System: L1210 leukemia ip in BDF1 mice, survival T/C
# Assay: NCI In Vivo Anticancer Drug Screen. Data for tumor model L1210 Leukemia (intraperitoneal) in B6D2F1 (BDF1) mice
# Details: endpoint: mean survival time, higher = longer survival
# Summary of the method: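 Transplanted-tumor mice were given test agent; controls received vehicle only. Survival readings from the two groups were divided (treated over control).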
# [1] = dose: 100.0 mg/kg/injection, schedule: Q04DX003 (ip), vehicle: Klucel (hydroxypropylcellulose) (HPC)
# [2] = dose: 200.0 mg/kg/injection, schedule: Q04DX003 (ip), vehicle: Klucel (hydroxypropylcellulose) (HPC)
# [3] = dose: 400.0 mg/kg/injection, schedule: Q04DX003 (ip), vehicle: Klucel (hydroxypropylcellulose) (HPC)
# [4] = dose: 100.0 mg/kg/injection, schedule: Q04DX003 (ip), vehicle: saline with Tween-80
# [5] = dose: 200.0 mg/kg/injection, schedule: Q04DX003 (ip), vehicle: saline with Tween-80
# [6] = dose: 50.0 mg/kg/injection, schedule: Q01DX009 (ip), vehicle: Klucel (hydroxypropylcellulose) (HPC)
# [7] = dose: 100.0 mg/kg/injection, schedule: Q01DX009 (ip), vehicle: Klucel (hydroxypropylcellulose) (HPC)
# [8] = dose: 200.0 mg/kg/injection, schedule: Q01DX009 (ip), vehicle: Klucel (hydroxypropylcellulose) (HPC)
# [9] = dose: 100.0 mg/kg/injection, schedule: Q04DX002 (ip), vehicle: Klucel (hydroxypropylcellulose) (HPC)
# [10] = dose: 200.0 mg/kg/injection, schedule: Q04DX002 (ip), vehicle: Klucel (hydroxypropylcellulose) (HPC)
# [11] = dose: 400.0 mg/kg/injection, schedule: Q04DX002 (ip), vehicle: Klucel (hydroxypropylcellulose) (HPC)
# [12] = dose: 100.0 mg/kg/injection, schedule: Q01DX001 (ip), vehicle: carboxymethylcellulose (CMC)
# [13] = dose: 200.0 mg/kg/injection, schedule: Q01DX001 (ip), vehicle: carboxymethylcellulose (CMC)
# [14] = dose: 400.0 mg/kg/injection, schedule: Q01DX001 (ip), vehicle: carboxymethylcellulose (CMC)
smiles,measurement,setting,value
S=C(SSSSC(=S)N1CCCCC1)N1CCCCC1,T/C,"dose: 50.0 mg/kg/injection, schedule: Q04DX003 (ip), vehicle: Klucel (hydroxypropylcellulose) (HPC)",97 % of control
same,T/C,[1],101 % of control
same,T/C,[2],92 % of control
same,T/C,[3],92 % of control
CS(=O)(=O)CC(=O)c1ccccc1,T/C,"dose: 37.5 mg/kg/injection, schedule: Q01DX009 (ip), vehicle: saline with Tween-80",87 % of control
same,T/C,"dose: 75.0 mg/kg/injection, schedule: Q01DX009 (ip), vehicle: saline with Tween-80",90 % of control
same,T/C,[4],95 % of control
same,T/C,"dose: 150.0 mg/kg/injection, schedule: Q01DX009 (ip), vehicle: saline with Tween-80",87 % of control
same,T/C,[5],96 % of control
C=CCN1CCC(C(=O)CC)(c2ccccc2)CC1,T/C,"dose: 12.5 mg/kg/injection, schedule: Q01DX009 (ip), vehicle: Klucel (hydroxypropylcellulose) (HPC)",100 % of control
same,T/C,"dose: 25.0 mg/kg/injection, schedule: Q01DX009 (ip), vehicle: Klucel (hydroxypropylcellulose) (HPC)",98 % of control
same,T/C,[6],106 % of control
CCCC1OC(C)C(C)O1 (stereo not drawn),T/C,[6],101 % of control
same,T/C,[7],101 % of control
same,T/C,[8],101 % of control
CC(C(=O)O)N1C(=O)c2ccccc2C1=O (stereo not drawn),T/C,[7],93 % of control
same,T/C,[1],92 % of control
same,T/C,[8],95 % of control
same,T/C,[2],97 % of control
same,T/C,"dose: 400.0 mg/kg/injection, schedule: Q01DX009 (ip), vehicle: Klucel (hydroxypropylcellulose) (HPC)",90 % of control
same,T/C,[3],94 % of control
CCCCCCCCCCCCC(C(=O)O)C1C=CCC1 (stereo not drawn),T/C,"dose: 100.0 mg/kg/injection, schedule: Q01DX001 (ip), vehicle: other",95 % of control
same,T/C,"dose: 200.0 mg/kg/injection, schedule: Q01DX001 (ip), vehicle: other",90 % of control
same,T/C,"dose: 400.0 mg/kg/injection, schedule: Q01DX001 (ip), vehicle: other",101 % of control
CCCCCCCCCCCCC(=O)N1CCCCC1,T/C,"dose: 100.0 mg/kg/injection, schedule: Q04DX002 (ip), vehicle: saline",91 % of control
same,T/C,"dose: 200.0 mg/kg/injection, schedule: Q04DX002 (ip), vehicle: saline",102 % of control
Nc1cc(Cl)c2[nH]cnc2n1,T/C,"dose: 33.0 mg/kg/injection, schedule: Q01DX009 (ip), vehicle: Klucel (hydroxypropylcellulose) (HPC)",179 % of control
same,T/C,[6],151 % of control and 159 % of control
same,T/C,"dose: 75.0 mg/kg/injection, schedule: Q01DX009 (ip), vehicle: Klucel (hydroxypropylcellulose) (HPC)",161 % of control
same,T/C,"dose: 100.0 mg/kg/injection, schedule: Q01DX001 (ip), vehicle: Klucel (hydroxypropylcellulose) (HPC)",118 % of control
same,T/C,[7],97 % of control
same,T/C,"dose: 133.0 mg/kg/injection, schedule: Q01DX001 (ip), vehicle: Klucel (hydroxypropylcellulose) (HPC)",119 % of control
same,T/C,"dose: 200.0 mg/kg/injection, schedule: Q01DX001 (ip), vehicle: Klucel (hydroxypropylcellulose) (HPC)",121 % of control
same,T/C,"dose: 300.0 mg/kg/injection, schedule: Q01DX001 (ip), vehicle: Klucel (hydroxypropylcellulose) (HPC)",122 % of control
O=C1C=CC(=O)N1c1ccc2c(c1)Cc1ccccc1-2,T/C,"dose: 50.0 mg/kg/injection, schedule: Q04DX003 (ip), vehicle: saline with Tween-80",98 % of control
same,T/C,[4],108 % of control and 115 % of control
same,T/C,[5],87 % of control
Clc1nc(I)c(Cl)c(C(Cl)(Cl)Cl)n1,T/C,"dose: 12.5 mg/kg/injection, schedule: Q01DX001 (ip), vehicle: Klucel (hydroxypropylcellulose) (HPC)",89 % of control
same,T/C,"dose: 25.0 mg/kg/injection, schedule: Q01DX001 (ip), vehicle: Klucel (hydroxypropylcellulose) (HPC)",93 % of control
same,T/C,"dose: 50.0 mg/kg/injection, schedule: Q01DX001 (ip), vehicle: Klucel (hydroxypropylcellulose) (HPC)",89 % of control
Cc1ccc(C)c(NCC(=O)NN)c1,T/C,[9],103 % of control
same,T/C,[10],100 % of control
same,T/C,[11],100 % of control
Cc1ccc([N+](=O)[O-])cc1NC(=O)N(CCO)C1CCCCC1,T/C,[9],101 % of control
same,T/C,[10],100 % of control
same,T/C,[11],104 % of control
C[n+]1ccc(C(=O)c2ccccc2)cc1,T/C,"dose: 75.0 mg/kg/injection, schedule: Q01DX001 (ip), vehicle: saline",94 % of control
same,T/C,"dose: 150.0 mg/kg/injection, schedule: Q01DX001 (ip), vehicle: saline",101 % of control
NC(=S)N/N=C1\CCCC\C1=N/NC(N)=S,T/C,"dose: 50.0 mg/kg/injection, schedule: Q01DX001 (ip), vehicle: carboxymethylcellulose (CMC)",101 % of control
same,T/C,[12],109 % of control
same,T/C,[13],101 % of control
same,T/C,[14],104 % of control
Fc1ccc(CSC(=S)Nc2ccc(Cl)c(Cl)c2)cc1,T/C,"dose: 75.0 mg/kg/injection, schedule: Q04DX003 (ip), vehicle: saline with Tween-80",102 % of control
same,T/C,"dose: 150.0 mg/kg/injection, schedule: Q04DX003 (ip), vehicle: saline with Tween-80",106 % of control
COc1ccc(C2C(=O)NN=C2C)cc1 (stereo not drawn),T/C,[12],96 % of control
same,T/C,[13],96 % of control
same,T/C,[14],102 % of control
FC(F)(F)c1cc(Cl)ccc1Cl,T/C,"dose: 80.0 mg/kg/injection, schedule: Q01DX009 (ip), vehicle: Klucel (hydroxypropylcellulose) (HPC)",100 % of control
same,T/C,[1],101 % of control and 106 % of control
same,T/C,"dose: 160.0 mg/kg/injection, schedule: Q01DX009 (ip), vehicle: Klucel (hydroxypropylcellulose) (HPC)",102 % of control
same,T/C,[2],92 % of control and 104 % of control
same,T/C,"dose: 320.0 mg/kg/injection, schedule: Q01DX009 (ip), vehicle: Klucel (hydroxypropylcellulose) (HPC)",111 % of control
same,T/C,[3],99 % of control and 102 % of control
